Measurements from patent US10647680B2, “Urea compound, preparation method therefor and medical use thereof” (Ancureall Pharmaceutical (Shanghai) Co., Ltd., priority 2016, dated 2020).
Counter-ions that a name gives are not always drawn.

Experiments:
[1] = tested on: RAMOS (positive expression of Brutons tyrosine protein kinase); assay: In vitro growth inhibition (GI50), RAMOS; assay type: cell-based; conditions: Homo sapiens, Cell lines of leukemia, read-out: GI 50 Ramos BTK
Description: (§1) 1. Cell Lines and Cell Cultures
(§2) Tumor cell line is an effective cell model for studying the inhibition of tumor cell growth or proliferation in vitro. In the present invention, a representative tumor cell line was selected to determine the cell growth inhibition activity of the present compound. All cell lines used were from ATCC, DSMZ, and the Cell Bank of the Chinese Academy of Sciences. Cell culture conditions and methods were in accordance with the requirements of each cell line. Cells were subcultured in vitro for no more than 3 passages each time, and as required, single-clone purification and identification of cell lines could be carried out.
(§3) The cell culture media used were RPMI1640 (Gibco), MEM (Gibco), McCOY'S5A (Gibco), and IMDM (Gibco). The complete medium was prepared by supplement with 5˜20% fetal calf serum (Gibco), 1% double-antibiotics (10000 units/mL penicillin and 10000 units/mL), 2 mM glutamine or 1 mM sodium pyruvate, respectively.
(§4) The human acute […] monomonocyte leukemia cell line MV4-11 (FLT3 ITD+/+ mutant type, ATCC) was cultured in a complete medium comprising 1×IMDM and 10% FBS. Human acute myeloid leukemia cell line MOLM-13 (FLT3 ITD+/− mutant type, DSMZ), human acute lymphoblastic leukemia cell line RS4; 11 (FLT3 wild type, ATCC), human chronic granulocytic leukemia cell line K562 (FLT3 negative expression, positive expression of BCR-ABL fusion protein, ATCC), human promyelocytic leukemia cell line HL-60 (FLT3 wild type, ATCC), human B lymphoblastic leukemia cell line RAMOS (positive expression of Brutons tyrosine protein kinase, ATCC), human acute myeloid leukemia cell line Kasumi-1 (c-Kit N822K mutant type, ATCC), human acute monocytic leukemia cell line U937 (FLT3 wild-type, ATCC), human acute myeloid leukemia cell line OCI-AML3 (NPMc+ mutant type, ATCC), human acute myeloid leukemia cell line KG-1 (expressing FGFR1OP2-FGFR1 fusion protein, ATCC) were cultured in a complete medium comprising 1×RPMI1640 and 10% FBS, respectively.
(§5) The suspension cells were collected by centrifugation. The supernatant was discarded and the cell pellet was resuspended and counted. Different cell concentrations (5˜10×10^4 cells/mL) were prepared according to the growth cycle of each cell line and then seeded on a 96-well plate (Corning), 100 μL/well. The cells were incubated overnight at 37° C., 5% CO2. The compounds were added to the cells on the second day with 2 wells in parallel. The final concentration of organic solvent shall not exceed 1%. The cells were continually incubated for 3 to 5 days, and then subjected to MTT assay.
(§6) The compound was stored in a concentration of 10 mM at −20° C. and diluted to 2- or 10-fold series prior to use.
(§7) Dojindo CCK8 reagent kit was used as MTT assay. […] FC meter was used as microplate reader.
(§8) For adherent cells, culture medium was removed and immediately replaced with the fresh prepared medium which contains 10% CCK8 reagent (100 μL/well). For the suspension cells, CCK8 was directly added to 10% of the final concentration. The cells were continually incubated for 1˜4 h. […] The experiment was independently repeated 1˜3 times, and subject to biological statistical analysis. 4. Experimental Results
(§9) The initial concentration of the compound was 5,000 nM, then it was serially diluted by 2-fold or 10-fold to 0.01 nM. The GI50 value of each test compound was calculated according to the GI50 assay and calculation method. The experiments were repeated 1 to 3 times, and data were subjected to biological statistical analysis.

[2] = tested on: MOLM-13 (FLT3 ITD+/− mutant type); assay: In vitro growth inhibition (GI50), MOLM-13; assay type: cell-based, human; conditions: Homo sapiens, MOLM-13; Cell lines of leukemia; read-out: GI 50 MOLM-13 FLT3 (ITD+/−)
Description: as §1, §2, §3, §4, §5, §6, §7, §8, §9

[3] = tested on: U937 (FLT3 wild-type); assay: In vitro growth inhibition (GI50), U937; assay type: cell-based; conditions: Homo sapiens, U-937; Cell lines of leukemia; read-out: GI 50 U937 FLT 3(WT)
Description: as §1, §2, §3, §4, §5, §6, §7, §8, §9

[4] = tested on: KG-1 (expressing FGFR1OP2-FGFR1 fusion protein); assay: In vitro growth inhibition (GI50), KG-1; assay type: cell-based; conditions: Homo sapiens; Cell lines of leukemia; read-out: GI 50 KG-1 FGFR1OP 2-FGFR1
Description: as §1, §2, §3, §4, §5, §6, §7, §8, §9

[5] = tested on: RS4; 11 (FLT3 wild type); assay: In vitro growth inhibition (GI50), RS4; 11; assay type: cell-based, human; conditions: Homo sapiens, RS4-11; Cell lines of leukemia; read-out: GI 50 RS4: 11 FLT3 (WT)
Description: as §1, §2, §3, §4, §5, §6, §7, §8, §9

[6] = tested on: OCI-AML3 (NPMc+ mutant type); assay: In vitro growth inhibition (GI50), OCI-AML3; assay type: cell-based; conditions: Homo sapiens, OCI-AML-3; Cell lines of leukemia; read-out: GI 50 OCI- AML3 NPMc+
Description: as §1, §2, §3, §4, §5, §6, §7, §8, §9

[7] = tested on: K562 (FLT3 negative expression, positive expression of BCR-ABL fusion protein); assay: In vitro growth inhibition (GI50), K562; assay type: cell-based; conditions: Homo sapiens, Cell lines of leukemia, read-out: GI 50 K562 BCR-ABL
Description: as §1, §2, §3, §4, §5, §6, §7, §8, §9

[8] = tested on: Kasumi-1 (c-Kit N822K mutant type); assay: In vitro growth inhibition (GI50), Kasumi-1; assay type: cell-based; conditions: Homo sapiens, Cell lines of leukemia, read-out: GI 50 Kasumi-1 Kit (N822K)
Description: as §1, §2, §3, §4
as §5, with “Adherent cells were digested with 0.25% pancreatin-EDTA (Gibco). The suspension” for “The suspension”
(§10) The compound of the present invention and the control compound were dissolved in DMSO (Sigma) respectively, with the purity of more than 98%. The compound was stored in a concentration of 10 mM at −20° C. and diluted to 2- or 10-fold series prior to use.
(§11) Dojindo CCK8 reagent kit was used as MTT assay. THERMO […] FC meter was used as microplate reader.
(§12) For adherent cells, culture medium was removed and immediately replaced with the fresh prepared medium which contains 10% CCK8 reagent (100 μL/well). For the suspension cells, CCK8 was directly added to 10% of the final concentration. The cells were continually incubated for 1˜4 h. When a dark yellow color could be observed in the solvent control wells, the absorbance value at OD450 nm was measured and the cell growth rate was calculated according to the following formula: Cell Growth Rate (%)=100*(T−T0)/(C−T0) T=optical density of drug treatment cell well—optical density of blank control well; T0=optical density of cell well before drug treatment—optical density of blank control well; C=optical density of cell well of solvent control group—optical density of blank control well. The concentration value of 50% inhibition of cell growth (GI50) was calculated according to the drug concentration and cell growth rate curve. […]

[9] = tested on: HL-60 (FLT3 wild type); assay: In vitro growth inhibition (GI50), HL-60; assay type: cell-based; conditions: Homo sapiens, Cell lines of leukemia, read-out: GI 50 HL60 FLT3 (WT)
Description: as §1, §2, §3, §4
as §5, with “Adherent cells were digested with 0.25% pancreatin-EDTA (Gibco). The suspension” for “The suspension”
as §10, §11, §12

[10] = tested on: MV4-11 (FLT3 ITD+/+ mutant type); assay: In vitro growth inhibition (GI50), MV4-11; assay type: cell-based, human; conditions: Homo sapiens, MV4-11; Cell lines of leukemia; read-out: GI 50 MV4-11 FLT3 (ITD +/+)
Description: as §1, §2, §3, §4, §5, §6, §7, §8, §9

Structure (SMILES)	GI50 [1] [nM]	GI50 [2] [nM]	GI50 [3] [nM]	GI50 [4] [nM]	GI50 [5] [nM]	GI50 [6] [nM]	GI50 [7] [nM]	GI50 [8] [nM]	GI50 [9] [nM]	GI50 [10] [nM]
COc1ccc2ncn(-c3ccc(NC(=O)Nc4cc(C(C)(C)C)on4)cc3)c2c1 [Compound 25, 1-(5-tert-butyl-isoxazol-3-yl)-3-[4-(6-methoxyl-benzimidazol-1-yl)-phenyl]-urea]	> 1000	0.1 to 1	> 1000	> 1000	> 1000	> 1000	> 1000	> 1000	> 1000	0.1 to 1
CN1CCN(CCCOc2ccc3c(c2)ncn3-c2ccc(NC(=O)Nc3cc(C(C)(C)C)n[nH]3)cc2)CC1 [Compound 92, 1-(5-tert-butyl-2H-pyrazol-3-yl)-3-(4-{5-[3-(4-methyl-piperazin-1-yl)-propoxyl]-benzimidazol-1-yl}-phenyl)-urea]	100 to 1000	0.1 to 1	100 to 1000	> 1000	10 to 100	> 1000	> 1000	> 1000	> 1000	0.1 to 1
Cc1cc(NC(=O)Nc2cc(C(C)(C)C)on2)ccc1-n1cnc2ccccc21 [Compound 37, 1-(4-benzimidazol-1-yl-3-methyl-phenyl)-3-(5-tert-butyl-isoxazol-3-yl)-urea]	> 1000	100 to 1000	> 1000	> 1000	> 1000	> 1000	> 1000	> 1000	> 1000	100 to 1000
CN(C)CCOc1ccc2c(c1)ncn2-c1ccc(NC(=O)Nc2cc(C(C)(C)C)on2)cc1 [Compound 20, 1-(5-tert-butyl-isoxazol-3-yl)-3-{4-[5-(2-dimethylamino-ethoxyl)-benzimidazol-1-yl]-phenyl}-urea]	> 1000	0.1 to 1	> 1000	> 1000	> 1000	> 1000	> 1000	> 1000	> 1000	0.1 to 1
CCCCCCOc1ccc2c(c1)ncn2-c1ccc(NC(=O)Nc2cc(C(C)(C)C)on2)cc1 [Compound 7, 1-(5-tert-butyl-isoxazol-3-yl)-3-[4-(5-hexyloxyl-benzimidazol-1-yl)-phenyl]-urea]	> 1000	0.1 to 1	> 1000	> 1000	> 1000	> 1000	> 1000	> 1000	> 1000	0.1 to 1
COc1ccc(-n2nc(C(C)(C)C)cc2NC(=O)Nc2ccc(-n3cnc4ccccc43)cc2)cc1 [Compound 106, 1-(4-benzimidazol-1-yl-phenyl)-3-[5-tert-butyl-2-(4-methoxyl-phenyl)-2H-pyrazol-3-yl]-urea]	> 1000	10 to 100	> 1000	> 1000	> 1000	> 1000	> 1000	> 1000	> 1000	10 to 100
CC(C)(C)c1cc(NC(=O)Nc2ccc(-c3cn4c(n3)sc3cc(OCCN5CCOCC5)ccc34)cc2)no1 [AC220, N-(5-tert-butyl-isoxazol-3-yl)-N′-{4-[7-(2-morpholin-4-yl-ethoxy)imidazo[2,1-b][1,3]benzothiazol-2-yl]phenyl}urea dihydrochloride, reference compound]	> 1000			> 1000		> 1000				
Cn1nc(C(C)(C)C)cc1NC(=O)Nc1ccc(-n2cnc3cc(OCCN4CCOCC4)ccc32)cc1 [Compound 102]	> 1000	0.1 to 1	> 1000		> 1000	> 1000		> 1000	> 1000	0.1 to 1
CC(C)(C)c1cc(NC(=O)Nc2ccc(-n3cnc4cc(OCCOCCO)ccc43)cc2)no1 [Compound 14, 1-(5-tert-butyl-isoxazol-3-yl)-3-(4-{5-[2-(2-hydroxy-ethoxyl)-ethoxyl]-benzimidazol-1-yl}-phenyl)-urea]		0.1 to 1	> 1000	> 1000	100 to 1000	> 1000	100 to 1000	> 1000	> 1000	0.1 to 1
COCCOc1ccc2c(c1)ncn2-c1ccc(NC(=O)Nc2cc(C(C)(C)C)nn2C)cc1 [Compound 101, 1-(5-tert-butyl-2-methyl-2H-pyrazol-3-yl)-3-{4-[5-(2-methoxyl-ethoxyl)-benzimidazol-1-yl]-phenyl}urea]	> 1000	0.1 to 1	> 1000		> 1000	> 1000		> 1000	> 1000	0.1 to 1
Cc1cc(N)nn1C(=O)Nc1ccc(-n2cnc3ccccc32)cc1 [Compound 113, 3-amino-5-methylpyrazol-1-carboxylic acid (4-benzimidazol-1-yl-phenyl)-amide]	> 1000		> 1000	> 1000	> 1000	> 1000	> 1000	> 1000	> 1000	
